Bridges are numbered along the chain shown (N, C = ends). The star is where a group is joined. Biotin = O=C1N[C@H]2[C@H](CS[C@H]2CCCCC(=O)*)N1
How the values were obtained:
[1] = target: NADPH oxidase (macrophage membrane liposomes, cytochrome b558) (Cavia porcellus, UniProt H0UXC6); format: biochemical, guinea pig
[2] = PDI reductase activity, DE-GSSG reduction; format: biochemical; conditions: for PDI activity of isolated Nox2 peptides: DE-GSSG reduction over a wide concentration range
[3] = test system: p67^phox(1–526); assay: Peptide–protein binding assay, p67phox(1–526); conditions: native (non-disulfide) peptide
[4] = test system: recombinant 6His-p67^phox; conditions: manuscript in preparation, cited from earlier work; for binding of p67phox to overlapping 15-mer peptides (peptide walking): ref Dahan and Pick; for binding of p67phox after introduction of intramolecular disulfide bond between C369 and C371 / binding of p67phox after reduction of the disulfide bond and alkylation of the reduced thiols: ref Fradin et al., [2011], [2012], Pick, Fradin and Pick
Description: The cytosolic segment of Nox2 is also known as the dehydrogenase region (DHR) by virtue of the fact that it contains the NADPH- and FAD-binding sites and is homologous to the prokaryotic protein ferredoxin-NADP^+ reductase. The DHR comprises binding sites for p47^phox and Rac but, so far, there is no solid evidence for the identity of the binding site(s) for p67^phox. We approached this question by applying the “peptide walking” methodology (Joseph and Pick, [1995]; Dahan et al., [2012]; Dahan and Pick, [2012]). […] An important observation was that enhanced binding of p67^phox was evident only when the disulfide bond was established between two non-adjacent cysteines and between cysteines present in the same peptide; when the CGC tria ...

[5] = test system: recombinant 6His-p67^phox; assay: Peptide–protein binding assay / peptide walking, p67phox; conditions: statement of Results section
[6] = test system: p67^phox(1–212); assay: Peptide–protein binding assay, p67phox(1–212); conditions: native (non-disulfide) peptide
[7] = test system: oxidized insulin; assay: Insulin reduction (turbidimetric) assay; format: biochemical; conditions: recombinant PDI
[8] = test system: p67^phox(1–526); assay: Effect of thiol reagents on binding of p67phox(1–526) to Nox2 peptide 24; conditions: 1 h room temperature
[9] = test system: NADPH oxidase; set-up: method as in 8 sources, one per row (each row's own in cited_ref): ref Shpungin et al., [1989] ||| ref Bellavite et al., [1983]; Gabig and Lefker, [1984] ||| ref Pick et al., [1987] ||| ref Le Cabec and Maridonneau-Parini, [1995] ||| ref Nishida et al., [2005] ||| ...; conditions: ref Paes et al., [2011], cited from earlier work
[10] = test system: p67^phox(1–212); assay: Protein–protein binding assay, p67phox(1–212); conditions: homodimers, 0.5 μM, p67phox coated at 0.5 μM; one characteristic experiment (Figure 5B)
[11] = test system: p67^phox(1–526); assay: Protein–protein binding assay, p67phox(1–526); conditions: homodimers, 0.5 μM, p67phox coated at 0.5 μM; one characteristic experiment (Figure 5A)
[12] = target: T1, p67^phox(1–212) (UniProt P19878 1-212); assay: ELISA; peptide—protein binding assay as a1, with peptide 24 and the modified peptides, all in the reduced form, subjected to oxidation by 1 mM H2O2; conditions: both partners purified
T1 construct: contains four cysteines (40, 45, 121, 165); source: E. coli, purified (Nickel Sepharose); not shown: 6His, N-terminal, kept
T1 sequence (looked up): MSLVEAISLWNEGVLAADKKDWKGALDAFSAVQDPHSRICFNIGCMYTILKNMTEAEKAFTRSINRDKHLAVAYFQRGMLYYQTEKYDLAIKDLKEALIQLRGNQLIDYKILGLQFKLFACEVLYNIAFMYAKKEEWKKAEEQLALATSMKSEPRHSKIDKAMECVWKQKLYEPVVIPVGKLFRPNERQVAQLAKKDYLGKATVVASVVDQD

16F16
inhibition of oxidase activation, in words [1]: Lack of an inhibitory effect

peptide 28: 15-mer Nox2 peptide, residues 369–383, CGC triad at N-terminus (CGCDKQEFQDAWKLP; UniProt P04839 369-383, looked up, fragment)
PDI activity of isolated Nox2 peptides [2]: No PDI activity
binding of p67phox(1–526) [3]: low affinity
binding of p67phox to overlapping 15-mer peptides (peptide walking) [4]: binds preferentially
binding of p67phox after introduction of intramolecular disulfide bond between C369 and C371 [4]: marked increase
binding of p67phox after reduction of the disulfide bond and alkylation of the reduced thiols [4]: totally abolished
increase in binding of p67phox on introduction of intramolecular disulfide bond linking C369 and C371 [5]: marked increase
binding of p67phox(1–212) [6]: low affinity

PDIA1: Recombinant PDI A1 (human), made in E. coli [reference compound]
Vmax, PDI reductase activity (Figure 7C,D) ([2]; 10 nM, DE-GSSG 0.8 μM, DTT 12.5 μM, pH 7.0, 24°C, mean ± SEM of 4 (PDIA1), 3 (PDIA3) experiments): 37,303 ± 1279
reductase activity relative to NusA-Nox2(357–570) ([2]; extrapolation of Vmax at 10 nM PDI to Vmax with 1 μM NusA-Nox2(357–570)): about 75 times
concentration down to which activity could be measured in insulin reduction assay [7]: 10 nM

CN(C)C(=O)/N=N/C(=O)N(C)C [diamide]
effect of pretreatment of p67phox on low affinity binding to native form of peptide 24 ([8]; NEM 0.1 mM or diamide 5 mM, three experiments (Figure 2A,B)): suppressed
effect of diamide pretreatment of p67phox on binding to peptide 24 in the disulfide form ([8]; p67^phox(1–526) 1.5 μM, diamide 5 mM, three experiments (Figure 2B)): totally abolished

oxidized PDI: exogenous oxidized PDI
effect of exogenous PDI on oxidase activation in vitro [9]: enhance

reduced PDI: exogenous reduced PDI
effect of exogenous PDI on oxidase activation in vitro [9]: diminish

IVGDWTEGLFNACGC [peptide 24, 15-mer Nox2 peptide, residues 357–371, CGC triad at C-terminus]
PDI activity of isolated Nox2 peptides [2]: No PDI activity
binding of p67phox(1–526) [3]: low affinity
binding of p67phox to overlapping 15-mer peptides (peptide walking) [4]: binds preferentially
binding of p67phox after introduction of intramolecular disulfide bond between C369 and C371 [4]: marked increase
binding of p67phox after reduction of the disulfide bond and alkylation of the reduced thiols [4]: totally abolished
increase in binding of p67phox on introduction of intramolecular disulfide bond linking C369 and C371 [5]: marked increase
binding of p67phox(1–212) [6]: low affinity

NC(=O)C1=CN([C@@H]2O[C@H](COP(=O)(O)OP(=O)(O)OC[C@H]3O[C@@H](n4cnc5c(N)ncnc54)[C@H](OP(=O)(O)O)[C@@H]3O)[C@@H](O)[C@H]2O)C=CC1 [NADPH]
replacement of DTT in the DE-GSSG reduction assay ([2]; up to 125 μM): could not be replaced

B1: NusA-Nox2(328–570): fusion protein of NusA and Nox2 residues 328–570 (protein)
chain: KCPKVSKLEWHPFTLTSAPEEDFFSIHIRIVGDWTEGLFNACGCDKQEFQDAWKLPKIAVDGPFGTASEDVFSYEVVMLVGAGIGVTPFASILKSVWYKYCNNATNLKLKKIYFYWLCRDTHAFEWFADLLQLLESQMQERNNAGFLSYNIYLTGWDESQANHFAVHHDEEKDVITGLKQKTLYGRPNWDNEFKTIASQHPNTRIGVFLCGPEALAETLSKQSISNSESGPRGVHFIFNKENF
modifications: left off: NusA (E. coli), N-terminal, kept | His tag (from the purification on Nickel Sepharose), end not stated, state not stated
binding of NusA-Nox2 to p67phox(1–212) [10]: significant binding
binding of NusA-Nox2 to p67phox(1–526) [11]: significant binding

B2: Nox2 peptide 24 (357–371) with an intramolecular disulfide bond between C369 and C371 (peptide)
peptide: Biotin-SGSGIVGDWTEGLFNACGC-NH2
modifications: disulfide 17-19
SMILES: CC[C@H](C)[C@H](NC(=O)CNC(=O)[C@H](CO)NC(=O)CNC(=O)[C@H](CO)NC(=O)CCCC[C@@H]1SC[C@@H]2NC(=O)N[C@@H]21)C(=O)N[C@H](C(=O)NCC(=O)N[C@@H](CC(=O)O)C(=O)N[C@@H](Cc1c[nH]c2ccccc12)C(=O)N[C@H](C(=O)N[C@@H](CCC(=O)O)C(=O)NCC(=O)N[C@@H](CC(C)C)C(=O)N[C@@H](Cc1ccccc1)C(=O)N[C@@H](CC(N)=O)C(=O)N[C@@H](C)C(=O)N[C@H]1CSSC[C@@H](C(N)=O)NC(=O)CNC1=O)[C@@H](C)O)C(C)C
notes: spacer between the N-terminal biotin and the peptide, printed as Ser-Gly-Ser-Gly; also called 24N CGC S-S; 24N S-S; source: synthetic peptide (Mimotopes or Bachem), synthesized in the disulfide form; also made from the reduced peptide by oxidation with 1 mM H2O2; not shown: biotin, N-terminal, kept
binding result [12]: binds

B3: Nox2 peptide 24 analog with CGC replaced by CysGlyHisCys, intramolecular disulfide bond between cysteines 369 and 372 (peptide)
peptide: Biotin-SGSGIVGDWTEGLFNACGHC-NH2
modifications: disulfide 17-20
SMILES: CC[C@H](C)[C@H](NC(=O)CNC(=O)[C@H](CO)NC(=O)CNC(=O)[C@H](CO)NC(=O)CCCC[C@@H]1SC[C@@H]2NC(=O)N[C@@H]21)C(=O)N[C@H](C(=O)NCC(=O)N[C@@H](CC(=O)O)C(=O)N[C@@H](Cc1c[nH]c2ccccc12)C(=O)N[C@H](C(=O)N[C@@H](CCC(=O)O)C(=O)NCC(=O)N[C@@H](CC(C)C)C(=O)N[C@@H](Cc1ccccc1)C(=O)N[C@@H](CC(N)=O)C(=O)N[C@@H](C)C(=O)N[C@H]1CSSC[C@@H](C(N)=O)NC(=O)[C@H](Cc2c[nH]cn2)NC(=O)CNC1=O)[C@@H](C)O)C(C)C
notes: spacer between the N-terminal biotin and the peptide, printed as Ser-Gly-Ser-Gly; also called 24N CGHC S-S (disulfide form); source: synthetic peptide (Mimotopes or Bachem), synthesized in the disulfide form; also made from the reduced peptide by oxidation with 1 mM H2O2; not shown: biotin, N-terminal, kept
binding result [12]: binds

B4: Nox2 peptide 24 analog with CGC replaced by CysGlyProCys, intramolecular disulfide bond between cysteines 369 and 372 (peptide)
peptide: Biotin-SGSGIVGDWTEGLFNACGPC-NH2
modifications: disulfide 17-20
SMILES: CC[C@H](C)[C@H](NC(=O)CNC(=O)[C@H](CO)NC(=O)CNC(=O)[C@H](CO)NC(=O)CCCC[C@@H]1SC[C@@H]2NC(=O)N[C@@H]21)C(=O)N[C@H](C(=O)NCC(=O)N[C@@H](CC(=O)O)C(=O)N[C@@H](Cc1c[nH]c2ccccc12)C(=O)N[C@H](C(=O)N[C@@H](CCC(=O)O)C(=O)NCC(=O)N[C@@H](CC(C)C)C(=O)N[C@@H](Cc1ccccc1)C(=O)N[C@@H](CC(N)=O)C(=O)N[C@@H](C)C(=O)N[C@H]1CSSC[C@@H](C(N)=O)NC(=O)[C@@H]2CCCN2C(=O)CNC1=O)[C@@H](C)O)C(C)C
notes: spacer between the N-terminal biotin and the peptide, printed as Ser-Gly-Ser-Gly; also called 24N CGPC S-S (disulfide form); source: synthetic peptide (Mimotopes or Bachem), synthesized in the disulfide form; also made from the reduced peptide by oxidation with 1 mM H2O2; not shown: biotin, N-terminal, kept
binding result [12]: binds

B5: scrambled RNAse: ribonuclease A, with scrambled disulfide bonds from bovine pancreas (protein, UniProt P61823 27-150, looked up)
Ribonuclease pancreatic: KETAAAKFERQHMDSSTSAASSSNYCNQMMKSRNLTKDRCKPVNTFVHESLADVQAVCSQKNVACKNGQTNCYQSYSTMSITDCRETGSSKYPNCAYKTTQANKHIIVACEGNPYVPVHFDASV
modifications: scrambled disulfide bonds
notes: ribonuclease A, with scrambled disulfide bonds from bovine pancreas
IC50, NADPH oxidase activation [1]: could not be determined
inhibition of oxidase activation, in words [1]: ineffective
inhibition of oxidase activation, amphiphile-dependent cell-free system ([9]; neutrophil membranes and recombinant cytosolic components): inhibit oxidase activation

B6: NusA-Nox2(372–570): fusion protein of NusA and Nox2 residues 372–570, lacks the CGC triad (protein)
chain: DKQEFQDAWKLPKIAVDGPFGTASEDVFSYEVVMLVGAGIGVTPFASILKSVWYKYCNNATNLKLKKIYFYWLCRDTHAFEWFADLLQLLESQMQERNNAGFLSYNIYLTGWDESQANHFAVHHDEEKDVITGLKQKTLYGRPNWDNEFKTIASQHPNTRIGVFLCGPEALAETLSKQSISNSESGPRGVHFIFNKENF
modifications: left off: NusA (E. coli), N-terminal, kept | His tag (from the purification on Nickel Sepharose), end not stated, state not stated
notes: fusion protein of NusA and Nox2 residues 372–570, lacks the CGC triad
loss of PDI activity ([2]; 2 μM (Figure 6C)): almost complete loss of PDI activity
Vmax, PDI reductase activity (Figure 6C) ([2]; 2 μM, DE-GSSG 800 nM, DTT 12.5 μM, one characteristic experiment, DTT only 26,248): 31,920 milli relative fluorescence units per min
